{"source": "paper PMC9544596", "about": "(Journal of Clinical Pharmacology, 2022)", "key": {"[1]": {"test": "Population pharmacokinetic model of vancomycin"}, "Enterococcus spp.": {"tested_on": "Enterococcus spp.", "test": "Vancomycin MIC of cultured clinical isolates", "assay_type": "cell-based"}}, "data": [{"smiles": "CN[C@H](CC(C)C)C(=O)N[C@H]1C(=O)N[C@@H](CC(N)=O)C(=O)N[C@H]2C(=O)N[C@H]3C(=O)N[C@H](C(=O)N[C@H](C(=O)O)c4cc(O)cc(O)c4-c4cc3ccc4O)[C@H](O)c3ccc(c(Cl)c3)Oc3cc2cc(c3O[C@@H]2O[C@H](CO)[C@@H](O)[C@H](O)[C@H]2O[C@H]2C[C@](C)(N)[C@H](O)[C@H](C)O2)Oc2ccc(cc2Cl)[C@H]1O", "note": "[vancomycin]", "values": [{"measurement": "CL, bootstrap of final model estimate", "setting": "[1]; 1000 bootstrap replicates", "result": 1.23, "unit": "L/h"}, {"measurement": "Vd, bootstrap of final model estimate", "setting": "[1]; 1000 bootstrap replicates", "result": 66.51, "unit": "L"}, {"measurement": "θ1, bootstrap of final model estimate", "setting": "[1]; 1000 bootstrap replicates", "result": 1.00}, {"measurement": "Vd, final model estimate", "setting": "[1]; Thai GFR not indexed to BSA final model", "result": 67.46, "unit": "L"}, {"measurement": "MIC50", "setting": "Enterococcus spp.; Enterococcus, read-out: MIC50 (min-max)", "result": 1, "unit": "µg/mL"}, {"measurement": "MIC50 (min-max)", "setting": "Enterococcus spp.; patients without shock, 6 isolates", "result": 1, "unit": "µg/mL"}, {"measurement": "MIC50 (min-max)", "setting": "Enterococcus spp.; septic shock patients, 5 isolates", "result": 1, "unit": "µg/mL"}]}]}
